{
  "source": "paper PMC4635352",
  "about": "“Preventive effect of oral goshajinkigan on chronic oxaliplatin-induced hypoesthesia in rats” (Scientific Reports, 2015)",
  "key": {"[1]": {"assay": "pharmacokinetic study of GJG-derived compounds in rat plasma (LC-MS/MS)", "assay_type": "in vivo", "conditions": "for Cmax / Tmax: rat plasma after oral GJG 1.0 g/kg, mean ± S.D.; for time for which the high plasma concentration was maintained: after oral administration of GJG; for time at which maximum plasma concentration (Cmax) was reached: after oral administration of GJG 1.0 g/kg", "protocol": "Rats cannulated in the jugular vein were fasted for more than 16 hours with access to water. At the time of 0.083, 0.25, 0.5, 1, 2, 4 and 8 hours after oral administration of GJG (1.0 g/10 mL/kg), blood samples were collected with a heparin-coated syringe and centrifuged at 3000 rpm for 15 minutes at 4 °C. The plasma samples were pretreated by precipitating plasma protein with an organic solvent or by solid-phase extraction and injected into the LC-MS/MS system for analysis. Components of GJG in plasma were measured by a QTRAP®5500 system (AB SCIEX, Tokyo, Japan) equipped with an Agilent 1260 HPLC system (binary pump, online degasser, auto plate-sampler and column oven; Agilent Technologies, Tokyo, Japan). The lower limits for quantification were 0.001 ng/mL for benzoylaconine, benzoylmesaconine, benzoylhypaconine; 0.002 ng/mL for 14-anisoylaconine; 0.2 ng/mL for loganin and morroniside; 0.5 ng/mL for paeoniflorin; and 5 ng/mL for catalpol. Cmax and time to reach maximum plasma concentration (Tmax) as pharmacokinetic parameters were calculated based on the plasma concentration of each compound by Phoenix WinNonlin (version 6.3; Certara L.P., St. Louis, MO, USA)."}, "neuro2A cells": {"system": "neuro2A cells", "conditions": "for oxaliplatin-induced ROS generation: co-administration with oxaliplatin, 100 μM (first screening), 1–100 μM (second screening), 1 h; for oxaliplatin-induced ROS generation, effect of antioxidants: Supplementary Figure S1; for ROS generation in neuro2A cells by metabolites of oxaliplatin: data not shown"}, "SHSY-5Y cells": {"system": "SHSY-5Y cells", "parameters": "method as in PMID 21241762, PMID 19379729, PMID 24263411", "conditions": "cited from earlier work"}},
  "note": "Read-outs that look alike come from different tables or passages of the source.",
  "data": [
    {"smiles": "CCN1C[C@]2(COC)[C@H](O)C[C@H](OC)C34C1C([C@H](OC)[C@@H]32)[C@]1(O)[C@@H]2[C@H]4C[C@@](O)([C@@H]2OC(=O)c2ccc(OC)cc2)[C@@H](OC)[C@@H]1O", "note": "[14-Anisoylaconine, 14-anisoylaconine]", "values": [
      {"measurement": "Cmax", "setting": "[1]", "result": "0.009 ± 0.000", "unit": "ng/mL"},
      {"measurement": "Tmax", "setting": "[1]", "result": "18.6 ± 7.8", "unit": "min"},
      {"measurement": "oxaliplatin-induced ROS generation", "setting": "neuro2A cells", "result": "significantly decreased"}
    ]},
    {"smiles": "CCN1C[C@]2(COC)[C@H](O)C[C@H](OC)[C@@]34[C@@H]5C[C@@]6(O)[C@H](OC(=O)c7ccccc7)[C@@H]5[C@@](O)([C@@H]([C@H](OC)[C@H]23)[C@@H]14)[C@@H](O)[C@@H]6OC", "note": "[Benzoylaconine, benzoylaconine]", "values": [
      {"measurement": "Cmax", "setting": "[1]", "result": "0.012 ± 0.002", "unit": "ng/mL"},
      {"measurement": "Tmax", "setting": "[1]", "result": "30 ± 0", "unit": "min"}
    ]},
    {"smiles": "COC[C@@]12CC[C@H](OC)[C@]34C([C@H]([C@H](OC)[C@H]13)[C@]1(O)[C@H]3[C@@H](OC(=O)c5ccccc5)[C@](O)(C[C@H]34)[C@@H](OC)[C@@H]1O)N(C)C2", "note": "[Benzoylhypaconine, benzoylhypaconine]", "values": [
      {"measurement": "Cmax", "setting": "[1]", "result": "0.013 ± 0.001", "unit": "ng/mL"},
      {"measurement": "Tmax", "setting": "[1]", "result": "30 ± 0", "unit": "min"}
    ]},
    {"smiles": "COC[C@]12CN(C)C3[C@@H]4[C@H](OC)[C@H]1[C@@]3([C@@H](OC)C[C@H]2O)[C@@H]1C[C@@]2(O)[C@H](OC(=O)c3ccccc3)[C@@H]1[C@]4(O)[C@@H](O)[C@@H]2OC", "note": "[Benzoylmesaconine, benzoylmesaconine]", "values": [
      {"measurement": "Cmax", "setting": "[1]", "result": "0.041 ± 0.006", "unit": "ng/mL"},
      {"measurement": "Tmax", "setting": "[1]", "result": "26.4 ± 7.8", "unit": "min"}
    ]},
    {"smiles": "OC[C@H]1O[C@@H](O[C@@H]2OC=C[C@H]3[C@H](O)[C@@H]4O[C@]4(CO)[C@@H]23)[C@H](O)[C@@H](O)[C@@H]1O", "note": "[Catalpol, catalpol]", "values": [
      {"measurement": "time for which the high plasma concentration was maintained", "setting": "[1]", "result": 4, "unit": "h"},
      {"measurement": "time at which maximum plasma concentration (Cmax) was reached", "setting": "[1]", "result": 60, "unit": "min"},
      {"measurement": "Cmax", "setting": "[1]; read-out: Cmax", "result": "282 ± 119", "unit": "ng/mL"},
      {"measurement": "Tmax", "setting": "[1]; read-out: Tmax", "result": "60 ± 33", "unit": "min"}
    ]},
    {"smiles": "COC(=O)C1=CO[C@@H](O[C@@H]2O[C@H](CO)[C@@H](O)[C@H](O)[C@H]2O)[C@@H]2[C@@H](C)[C@@H](O)C[C@H]12", "note": "[Loganin, loganin]", "values": [
      {"measurement": "ROS production induced by H2O2 or amyloid β 25–35 peptide", "setting": "SHSY-5Y cells", "result": "attenuate ROS production"},
      {"measurement": "time for which the high plasma concentration was maintained", "setting": "[1]", "result": 4, "unit": "h"},
      {"measurement": "time at which maximum plasma concentration (Cmax) was reached", "setting": "[1]", "result": 30, "unit": "min"},
      {"measurement": "Cmax", "setting": "[1]; read-out: Cmax", "result": "43.7 ± 25.7", "unit": "ng/mL"},
      {"measurement": "Tmax", "setting": "[1]; read-out: Tmax", "result": "34.8 ± 12", "unit": "min"},
      {"measurement": "oxaliplatin-induced ROS generation", "setting": "neuro2A cells", "result": "significantly decreased"}
    ]},
    {"smiles": "COC(=O)C1=CO[C@@H](O[C@@H]2O[C@H](CO)[C@@H](O)[C@H](O)[C@H]2O)[C@@H]2[C@H](C)O[C@@H](O)C[C@H]12", "note": "[Morroniside, morroniside]", "values": [
      {"measurement": "ROS production induced by H2O2 or amyloid β 25–35 peptide", "setting": "SHSY-5Y cells", "result": "attenuate ROS production"},
      {"measurement": "time for which the high plasma concentration was maintained", "setting": "[1]", "result": 4, "unit": "h"},
      {"measurement": "time at which maximum plasma concentration (Cmax) was reached", "setting": "[1]", "result": 30, "unit": "min"},
      {"measurement": "Cmax", "setting": "[1]; read-out: Cmax", "result": "53.7 ± 26.9", "unit": "ng/mL"},
      {"measurement": "Tmax", "setting": "[1]; read-out: Tmax", "result": "40.2 ± 15.6", "unit": "min"},
      {"measurement": "rank of anti-ROS action among active components", "setting": "neuro2A cells; among LO, MO, PF and 14-AA", "result": "strongest action"},
      {"measurement": "oxaliplatin-induced ROS generation", "setting": "neuro2A cells", "result": "significantly decreased"}
    ]},
    {"smiles": "CC(=O)N[C@@H](CS)C(=O)O", "note": "[N-acetyl cysteine]", "values": [
      {"measurement": "oxaliplatin-induced ROS generation, effect of antioxidants", "setting": "neuro2A cells", "result": "inhibited"}
    ]},
    {"smiles": "C[C@@]12C[C@@]3(O)O[C@@H](O1)[C@]1(COC(=O)c4ccccc4)[C@H]3C[C@@]12O[C@@H]1O[C@H](CO)[C@@H](O)[C@H](O)[C@H]1O", "note": "[Paeoniflorin, paeoniflorin]", "values": [
      {"measurement": "ROS production induced by H2O2 or amyloid β 25–35 peptide", "setting": "SHSY-5Y cells", "result": "attenuate ROS production"},
      {"measurement": "time at which maximum plasma concentration (Cmax) was reached", "setting": "[1]", "result": 30, "unit": "min"},
      {"measurement": "Cmax", "setting": "[1]; read-out: Cmax", "result": "9.1 ± 1.2", "unit": "ng/mL"},
      {"measurement": "Tmax", "setting": "[1]; read-out: Tmax", "result": "34.8 ± 12", "unit": "min"},
      {"measurement": "oxaliplatin-induced ROS generation", "setting": "neuro2A cells", "result": "significantly decreased"}
    ]},
    {"smiles": "[Cl][Pt+2][Cl].[NH-]C1CCCCC1[NH-]", "note": "(centres unmarked) [Pt(dach)Cl2, dichloro (1,2-diaminocyclohexane) platinum]", "values": [
      {"measurement": "ROS generation in neuro2A cells by metabolites of oxaliplatin", "setting": "neuro2A cells", "result": "increased ROS generation"}
    ]},
    {"smiles": "N[C@@H](CCC(=O)N[C@@H](CS)C(=O)NCC(=O)O)C(=O)O", "note": "[glutathione]", "values": [
      {"measurement": "oxaliplatin-induced ROS generation, effect of antioxidants", "setting": "neuro2A cells", "result": "inhibited"}
    ]},
    {"smiles": "O=C(O)C(=O)O", "note": "[oxalate]", "values": [
      {"measurement": "ROS generation in neuro2A cells by metabolites of oxaliplatin", "setting": "neuro2A cells", "result": "did not"}
    ]}
  ]
}
